The results in this text go back to article PMC12067444, “Synthesis and Pharmacological Characterization of Novel Peripheral Cannabinoid-1 Receptor Blockers Based on a Tricyclic Scaffold” (Journal of Medicinal Chemistry, 2025).

Each structure is given as a SMILES string. Where two headings read alike, the source gives them in different places.

One data set concerns the target T1, human CB1R (Homo sapiens, UniProt P21554).
T1 construct: purchased PerkinElmer RBHCB1M400UA
The data set is described as follows: Radioligand competition displacement binding, [3H]CP-55,940, membranes with human CB1R. As for the experimental part: BNS compounds’ binding to CB1R and CB2R was assessed in competition displacement assays using [^3H]CP-55,940 as the radioligand and crude membranes from mouse brain or human cells overexpressing the CB1R or CB2R. All data were in triplicates with Ki values determined from three independent experiments. See SI for a detailed procedure. […]
(§1) Radioligand binding assays were performed to asse ss the binding affinity of the different compounds to hCB1R (RBHCB1M4 00UA; Per kinElmer) or hCB 2R
(§2) (RBXCB2 M400UA; PerkinElmer). Competition displacement as says w ere employed, […]
(§3) utilizing [3H] C P -55,940 as the radioligand and crude membranes from humans for CB1 R or CB2 R. T he compounds were tested at various concentrations (eight points with a five-fold serial dilution starting at two m M) , and their ability to displace [3H] CP - 55, 940 was evaluated. Upon completion of the binding assays, the reaction mixture was filtered through GF/C plates, followed by four washes with cold wash buffer. After drying for one hour, 50 μL of Perkin Elmer Microscint 20 cocktail was added to the filter plate wells, and the bound [3H] C P -55,940 radioligand was measured using a β counter. All data points were duplicated, and Ki values were determined from two independent experiments using GraphPad Prism 7.02 analysis software, extracted through nonlinear regression analysis. […]
In general terms: Loss of bound radioactivity is the signal in a displacement assay; it reports binding, not function.

The target of the next data set is T2, human CB2R (Homo sapiens, UniProt P34972).
T2 construct: purchased PerkinElmer; Charles River RBXCB2M400UA; A618
Put plainly: Radioligand competition displacement binding, [3H]CP-55,940, membranes with human CB2R. Conditions: [3H]CP-55,940 displacement, read-out: CB2R hKi. On the procedure: BNS compounds’ binding to CB1R and CB2R was assessed in competition displacement assays using [^3H]CP-55,940 as the radioligand and crude membranes from mouse brain or human cells overexpressing the CB1R or CB2R. All data were in triplicates with Ki values determined from three independent experiments. See SI for a detailed procedure.
Supplementary Experimental Methods […]
CB1R and CB2R binding. Binding to the CB1R/CB2R was asse ss ed using competition displacement as says with [ 3H] CP -55,940 as the radioligand. Purified membranes from the mouse brain were utilized for CB1R assessment (as described above). Purified […]
membranes from cells overexpressing human CB2R ( Char les River CAT # A618) w e r e employed for CB2R evaluation. […]
as §1, §2, §3
MgCl 2. The tissue was homogenized using a glass -Teflon and Hei-T ORQUE 200 homogenizer (Heidolph; Cat#17- 012- 002- 25 -1) set to 132 rpm. The resulting suspen sion underwent centrifugation at 48,000 × g for 20 min at four °C, and the supernatant was discarded. The pellet obtained was homogenized again and subjected to a second centrifugation under the same conditions. Subsequently, the resulting pellet […]
mM EGTA, 9 mM MgCl 2, and 150 mM NaCl, followed by homogenization. The protein concentration of the suspension was determined using the BCA assay, and the suspen sion was diluted to a final concentration of 2 mg/mL in assay buffer. The prepared suspension was aliquoted on ice and stored at - 80 °C for further use.

In a further data set the target is P-gp (MDR1) (Homo sapiens, UniProt P08183). The data set is described as follows: Bidirectional permeability in MDR1-MDCKII cells with and without GF120918. The settings on record: dog; for Papp A→B at 2.5 h / Papp B→A at 2.5 h / efflux ratio at 2.5 h: MDCK-MDR1. On the procedure: (§4) MDR1-MDCKII cells were seeded onto […] (PET) in a 96-well insert system. Test and reference compounds were administered to the apical (A-to-B) and basolateral (B-to-A) sides of the cell monolayer. Permeation of the compounds in both directions was assessed, with and without a P-glycoprotein (P-gp) inhibitor (GF120918). […] After a 2.5-h incubation period, each compound’s permeability and efflux ratio were calculated as described in the SI. […]
(§5) Bidirectional permeability assessment in MDR1-MDCK cells. Test and reference compounds were quantified using LC -MS/MS ana lysis based on th e peak ar ea r atio of analyte to internal standard (IS). T he apparent permeability coefficient (Papp) in cm/s was computed using the equation: Pa pp = (dCr/d t ) × V r / ( A × C 0), where dCr/ d t […]
(§6) represents the cumulative concentration of the compound in the receiver chamber over time (µM/s), Vr is the solution volume in the receiver chamber (0.075 mL on the apical side, 0.25 mL on the basolateral side), A is the surface area for transport (0.0804 cm2 f or the monolayer ar ea), and C0 is the initial concentration in the donor chamber ( µM) .
(§7) The efflux ratio was determined using the equation Efflux Ratio = P a pp ( B:
(§8) A ) / Pa pp (A: B) . […]
(§9) Additionally, the percent of lucifer yellow in the basolateral well was calculated using the equation:
(§10) Lucif er yellow = VV bbbbbbbbbbbbbbbbbbbb ×RR FFFF bbbbbbbbbbbbbbbbbbbb ×100 VV bbaaaaaa bbbb ×RRRRRR bbaaaaaa bbbb+VV bbbbbbbbbbbbbbbbbbbb ×RRFFFF bbbbbbbbbbbbbbbbbbbb wher e RFUApical and RFUBasolateral demote the r elative f luor escence unit values of lucif er yellow in the apical and basolateral wells, respectively, and VApical and VBasolateral represent the volumes of apical and basolateral wells (0.075 mL and 0.25 mL, r espectively) . T he % Lucif er Yellow should be less than 2, indicating minimal leakage. […]

In the next data set the target is P-gp (MDR1-MDCKII cells) (Homo sapiens, UniProt P08183). Described as above. The settings on record: for P-gp substrate: MDR1-MDCKII cells; for Rank Papp: MDR1-MDCKII permeability rank. On the procedure:
as §4, §5, §6, §7, §8, §9, §10

A short description of data set [1]: Tissue distribution after acute oral administration. The format is in vivo, mouse. Conditions: for Kp at 1 h: male, C57Bl/6J, mouse, in vivo, 1 mg/kg PO, 1 h post-acute administration. On the procedure: Male C57Bl/6J mice aged 7–9 weeks (3–4 mice per compound) were fasted overnight before administering each test compound. The compounds were accurately weighed and mixed with an appropriate vehicle to prepare a clear oral solution. The formulations were freshly prepared on the dosing day, and the mice were administered the compound via oral gavage within 4 h of formulation preparation. 1, 2, 4, and 8 h after compound administration, the mice were euthanized, and approximately 200 μL of blood was collected via cardiac puncture for plasma preparation. Brain and liver tissues were harvested and processed for analysis. Sample analysis was performed using LC-MS/MS, as described in detail in the SI. […]
calculated using the equation:
Lucif er yellow = VV bbbbbbbbbbbbbbbbbbbb ×RR FFFF bbbbbbbbbbbbbbbbbbbb ×100 […]
Measurements of BNS808 using LC-MS/MS. MS/MS analyses were conducted using a Sciex QTRAP® 6500+ mass spectrometer (Framingham, MA, USA). Air was […]
Infinity 1031 nitrogen generator (Peak Scientific, Inchinnan, Scotland). Purified air […]
generator to ensure a continuous and stable air supply.

The mark [2] stands for this setting: human CB1R, read-out: CB1R hIC50.
The mark [3] stands for this setting: MDCK-MDR1, Mean recovery % A to B, without GF120918.
Setting [4] is: MDCK-MDR1, Mean recovery % B to A, without GF120918.

Sequence of P-gp (MDR1-MDCKII cells) (P08183 whole entry): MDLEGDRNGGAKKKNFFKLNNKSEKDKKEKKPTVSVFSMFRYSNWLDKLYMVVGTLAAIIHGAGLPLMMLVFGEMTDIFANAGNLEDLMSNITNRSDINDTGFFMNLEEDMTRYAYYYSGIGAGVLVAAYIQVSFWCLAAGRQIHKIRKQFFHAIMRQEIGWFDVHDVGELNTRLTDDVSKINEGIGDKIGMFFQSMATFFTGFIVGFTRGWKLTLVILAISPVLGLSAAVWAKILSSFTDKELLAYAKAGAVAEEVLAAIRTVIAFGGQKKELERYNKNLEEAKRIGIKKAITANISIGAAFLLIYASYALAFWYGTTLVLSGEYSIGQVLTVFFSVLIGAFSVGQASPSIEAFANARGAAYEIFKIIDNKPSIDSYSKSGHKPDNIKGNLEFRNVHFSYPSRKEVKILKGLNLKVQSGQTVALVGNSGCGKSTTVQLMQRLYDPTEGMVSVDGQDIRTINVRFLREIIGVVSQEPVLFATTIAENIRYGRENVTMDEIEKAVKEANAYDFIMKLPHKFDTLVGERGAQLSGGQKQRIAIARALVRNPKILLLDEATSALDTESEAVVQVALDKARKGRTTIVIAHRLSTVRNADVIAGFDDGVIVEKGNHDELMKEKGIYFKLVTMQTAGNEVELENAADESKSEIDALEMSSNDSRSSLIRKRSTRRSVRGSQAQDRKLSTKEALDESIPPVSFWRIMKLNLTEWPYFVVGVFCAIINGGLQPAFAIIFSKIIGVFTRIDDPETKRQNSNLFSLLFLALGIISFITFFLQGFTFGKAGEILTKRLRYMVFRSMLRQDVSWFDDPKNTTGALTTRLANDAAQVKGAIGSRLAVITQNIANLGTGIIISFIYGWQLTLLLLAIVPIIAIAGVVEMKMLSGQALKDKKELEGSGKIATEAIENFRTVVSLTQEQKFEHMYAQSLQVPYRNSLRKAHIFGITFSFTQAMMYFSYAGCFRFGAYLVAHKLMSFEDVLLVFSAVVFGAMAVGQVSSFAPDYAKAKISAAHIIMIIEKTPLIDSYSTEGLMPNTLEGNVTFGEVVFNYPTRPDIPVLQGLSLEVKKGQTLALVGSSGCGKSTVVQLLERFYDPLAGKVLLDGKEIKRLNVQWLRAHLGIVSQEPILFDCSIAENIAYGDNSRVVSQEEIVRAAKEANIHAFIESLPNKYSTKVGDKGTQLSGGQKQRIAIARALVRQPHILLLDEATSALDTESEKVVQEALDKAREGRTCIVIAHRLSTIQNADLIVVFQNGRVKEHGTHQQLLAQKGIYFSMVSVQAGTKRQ
Sequence of P-gp (MDR1) (P08183 whole entry): as above
T2 sequence (P34972 whole entry): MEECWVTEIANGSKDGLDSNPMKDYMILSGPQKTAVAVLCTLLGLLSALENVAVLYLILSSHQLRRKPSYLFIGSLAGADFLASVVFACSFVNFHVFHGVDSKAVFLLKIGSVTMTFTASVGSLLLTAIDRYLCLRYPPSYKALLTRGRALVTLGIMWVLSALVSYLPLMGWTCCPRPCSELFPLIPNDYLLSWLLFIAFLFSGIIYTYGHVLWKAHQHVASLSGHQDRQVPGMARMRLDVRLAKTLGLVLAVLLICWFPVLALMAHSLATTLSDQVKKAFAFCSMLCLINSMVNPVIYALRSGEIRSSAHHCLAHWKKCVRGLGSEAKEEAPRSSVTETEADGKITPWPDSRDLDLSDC
T1 sequence (P21554 whole entry): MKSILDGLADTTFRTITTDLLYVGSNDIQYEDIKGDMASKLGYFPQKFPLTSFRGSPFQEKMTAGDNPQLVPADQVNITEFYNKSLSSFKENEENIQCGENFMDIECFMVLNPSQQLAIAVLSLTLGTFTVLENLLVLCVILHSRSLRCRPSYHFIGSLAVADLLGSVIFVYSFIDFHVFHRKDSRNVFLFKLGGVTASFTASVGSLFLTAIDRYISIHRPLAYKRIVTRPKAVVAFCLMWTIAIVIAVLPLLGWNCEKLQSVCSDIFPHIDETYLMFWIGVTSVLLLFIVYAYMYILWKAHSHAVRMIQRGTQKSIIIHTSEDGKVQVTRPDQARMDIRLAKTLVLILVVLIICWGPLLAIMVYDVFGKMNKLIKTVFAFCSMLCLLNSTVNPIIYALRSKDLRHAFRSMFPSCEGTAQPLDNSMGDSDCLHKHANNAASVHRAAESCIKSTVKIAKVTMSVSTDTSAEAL

Regarding `Cc1ccc(S(=O)(=O)NC2CCCOc3c2nn(-c2ccccc2Cl)c3-c2ccc(Cl)cc2)cc1` (stereo not drawn) [BNS807], the IC50 on human CB1R (setting [2]) is 1.5 nM. Besides, the Ki on human CB2R stood at 1650 nM.

By Papp A→B is commonly meant how fast a substance crosses the layer from the apical side. A high value points to fast passage. For orientation: Papp B→A means how fast a substance crosses the layer from the basolateral side. By efflux ratio is commonly meant the permeability from basolateral to apical divided by that in the opposite direction, in the common usage. `CS(=O)(=O)N1CCC(C(=O)NC2CCCOc3c2nn(-c2ccccc2Cl)c3-c2ccc(Cl)cc2)CC1` (stereo not drawn) [BNS815, N-[2-(2-Chlorophenyl)-3-(4-chlorophenyl)-5,6,7,8-tetrahydrooxepino[3,2-c]pyrazol-8-yl]-1-methylsulfonyl-piperidine-4-carboxamide]: the Ki came to 9.09 nM at human CB1R ([3H]CP-55,940 displacement, human CB1R membranes, read-out: CB1R hKi) and 6310 nM at human CB2R. The IC50 at human CB1R (setting [2]) was found to be 10.1 nM. In addition, the Papp A→B at 2.5 h on P-gp (MDR1) was determined as 10.1 ×10⁻⁶ cm/s. This molecule also had a Papp B→A at 2.5 h at P-gp (MDR1) of 18.9 ×10⁻⁶ cm/s. The efflux ratio at 2.5 h at P-gp (MDR1) was found to be 1.87. The recovery at 2.5 h at P-gp (MDR1) (setting [3]) worked out at 75.2%; at P-gp (MDR1) (setting [4]), 76.1%; at P-gp (MDR1) (MDCK-MDR1, with GF120918 (concentration not stated), Mean recovery % A to B, with GF120918), 63.8%; at P-gp (MDR1) (MDCK-MDR1, with GF120918 (concentration not stated), Mean recovery % B to A, with GF120918), 77.6%. Moreover, the P-gp substrate result at P-gp (MDR1-MDCKII cells) is recorded as “yes”. For the same molecule, the “Rank Papp” value on P-gp (MDR1-MDCKII cells) is reported as “Hi gh”.

Regarding `O=S(=O)(NC1CCCOc2c1nn(-c1ccccc1Cl)c2-c1ccc(Cl)cc1)c1ccc(Cl)cc1` (stereo not drawn) [BNS808, 4-chloro-N-[2-(2-chlorophenyl)-3-(4-chlorophenyl)-5,6,7,8-tetrahydrooxepino[3,2-c]pyrazol-8-yl]benzenesulfonamide], the IC50 on human CB1R was 0.8 nM. Besides, the Ki at human CB2R turned out to be 1930 nM. This molecule displayed a Papp A→B at 2.5 h on P-gp (MDR1) of 0.26 ×10⁻⁶ cm/s. The Papp B→A at 2.5 h at P-gp (MDR1) was 1.01 ×10⁻⁶ cm/s. For the same molecule, on P-gp (MDR1), the efflux ratio at 2.5 h amounted to 3.95. Moreover, the recovery at 2.5 h on P-gp (MDR1) (MDCK-MDR1, Mean recovery % A to B, with GF120918) is 7.87%; on P-gp (MDR1) (setting [3]), 7.9%; at P-gp (MDR1) (MDCK-MDR1, Mean recovery % B to A, with GF120918), 23.4%; on P-gp (MDR1) (setting [4]), 15.3%. For the same molecule, the “Papp A:B” value at P-gp (MDR1-MDCKII cells) (A to B, without GF120918) is reported as 0.26 ×10^–6 cm/s. The P-gp substrate entry on P-gp (MDR1-MDCKII cells) is “P-gp substrate and P-gp substrates and yes”. In addition, the “Rank Papp” value on P-gp (MDR1-MDCKII cells) is reported as “Low”. In addition, the liver concentration in data set [1] (1 mg/kg PO acute, time point not stated) is on record as roughly 200 ng/g. Moreover, in data set [1] (1 mg/kg PO single acute dose, lean C57Bl/6 mice, 1, 2, 4, 8 h), the “brain concentration, average over time points” value turned out to be 13.7 ng/g. Further, the Kp at 1 h in data set [1] (read-out: brain-to-plasma (B/P) ratio) amounted to 0.18; in data set [1] (read-out: liver/plasma (L/P) ratio), 3.62.
